Assay results taken from PMC6747318, “Mutual Enhancement of Opioid and Adrenergic Receptors by Combinations of Opioids and Adrenergic Ligands Is Reflected in Molecular Complementarity of Ligands: Drug Development Possibilities” (International Journal of Molecular Sciences, 2019).

Experiments:
[1] = UV spectroscopy binding between compounds: binding to methadone; conditions: pH 7.4 sodium phosphate buffer, read-out: Kd @ 200 nm, binding to Meth
[2] = target: intact mu opioid receptors (muOPRs) (Homo sapiens, UniProt P35372); assay type: binding; set-up: intact mu opioid receptors (muOPRs); deca-histidine tag (N); made in house; host or cells: E. coli C43 (DE3)
[3] = UV spectroscopy binding between compounds: binding to propranolol; conditions: read-out: Kd @ 200 nm, binding to Prop; UV spectroscopy, pH 7.4 sodium phosphate buffer; single binding constant
[4] = UV spectroscopy binding between compounds: binding to ascorbic acid; conditions: read-out: Kd @ 200 nm, binding to Asc, pH 7.4 sodium phosphate buffer
[5] = UV spectroscopy binding between compounds: binding to morphine sulfate; conditions: read-out: Kd @ 200 nm, binding to Morph; UV spectroscopy, pH 7.4 sodium phosphate buffer; single binding constant
[6] = UV spectroscopy binding between compounds: binding to glucose; conditions: read-out: Kd @ 200 nm, binding to Glucose, pH 7.4 sodium phosphate buffer
[7] = target: T1, dopamine D1 receptor (D1DR) 170–188 (Homo sapiens, UniProt P21728); experiment: UV spectroscopy binding to receptor peptide D1DR 170–188
T1 construct: D1DR 170–188
Description: (§1) After the solutions were made, a 96-well quartz crystal plate was prepared to be run through the spectrophotometer at room temperature (ca. 24 °C). […] The absorbance of each receptor peptide without the presence of the adrenergic compound was measured as well. The absorbance of each well was measured at every 10 nm increment from 190 nm to 260 nm. The maximum absorbance that can be measured was set to four. Each well had 200 μL of solution, so if the absorbance of one component was being measured, it was diluted by half with a phosphate buffer.
(§2) If the measured absorbance is different than the additive absorbance of each compound, then that indicates some sort of molecular interaction. The binding can be quantified by graphing the difference in absorbance against the concentration of the compound varied to provide a binding curve. The data are analyzed by finding the additive absorbance and plotting the difference between this absorbance and the actual absorbance against the concentration of the adrenergic compound. The absorbance for the phosphate buffer is subtracted for each well before any calculations are done. […] The binding constants were estimated from the half-saturation point.

[8] = UV spectroscopy binding between compounds: binding to naloxone; conditions: pH 7.4 sodium phosphate buffer, read-out: Kd @ 200 nm, binding to NAL
[9] = target: methionine-enkephalin (Homo sapiens, UniProt P01210); experiment: UV spectroscopy binding between compounds: binding to methionine-enkephalin; set-up: M-Enk = methionine-enkephalin; purchased Sigma-Aldrich; conditions: Kd @ 200 nm, binding to M-Enk, UV spectroscopy, pH 7.4 sodium phosphate buffer; single binding constant
[10] = target: T2, beta 2 adrenergic receptor (B2AR) 175–188 (Homo sapiens, UniProt P07550); experiment: UV spectroscopy binding to receptor peptide B2AR 175–188
T2 construct: B2AR 175–188
Description: as §1, §2

[11] = UV spectroscopy binding between compounds: binding to amphetamine; conditions: read-out: Kd @ 200 nm, binding to Amph; UV spectroscopy, pH 7.4 sodium phosphate buffer; single binding constant
[12] = target: T3, beta 2 adrenergic receptor (B2AR) 97–103 (Homo sapiens, UniProt P07550); experiment: UV spectroscopy binding to receptor peptide B2AR 97–103
T3 construct: B2AR 97–103
Description: as §1, §2

[13] = target: T4, dopamine D1 receptor (D1DR) 89–98 (Homo sapiens, UniProt P21728); experiment: UV spectroscopy binding to receptor peptide D1DR 89–98
T4 construct: D1DR 89–98
Description: as §1, §2

[14] = UV spectroscopy binding between compounds: binding to riboflavin; conditions: pH 7.4 sodium phosphate buffer, read-out: Kd @ 200 nm, binding to Ribo

Chain of intact mu opioid receptors (muOPRs) (P35372 whole entry): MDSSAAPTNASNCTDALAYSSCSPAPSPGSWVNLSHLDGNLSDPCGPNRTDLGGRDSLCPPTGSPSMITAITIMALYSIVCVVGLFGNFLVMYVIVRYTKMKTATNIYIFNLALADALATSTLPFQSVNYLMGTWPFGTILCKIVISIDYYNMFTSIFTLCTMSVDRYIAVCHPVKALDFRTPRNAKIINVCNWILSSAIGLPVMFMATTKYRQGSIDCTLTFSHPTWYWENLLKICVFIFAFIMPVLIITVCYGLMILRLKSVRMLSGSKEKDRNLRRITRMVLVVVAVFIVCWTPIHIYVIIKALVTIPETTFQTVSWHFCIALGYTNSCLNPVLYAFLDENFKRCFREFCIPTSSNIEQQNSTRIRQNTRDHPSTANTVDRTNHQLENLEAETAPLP

With `CC(=O)OCC[N+](C)(C)C` [Acetylcholine] the Kd [1] was greater than 1000 µM, the “ligand binding to intact muOPRs” value [2] was “no observable bind” and the Kd [3] was greater than 1000 µM. For the same molecule, the Kd [4] was greater than 1000 µM, the Kd [5] was greater than 1000 µM and the Kd [6] was greater than 1000 µM. For the same molecule, the Kd [7] was greater than 1000 µM, the Kd [8] was greater than 1000 µM and the Kd [9] was 80 µM. The Kd [10] was greater than 1000 µM, the Kd [11] was greater than 1000 µM and the Kd [12] was greater than 1000 µM. The Kd [13] was greater than 1000 µM and the Kd [14] was greater than 1000 µM.
